Here are results for one molecule from patent US8765181B2, “Nano anticancer micelles of vinca alkaloids entrapped in polyethylene glycolylated phospholipids” (Beijing Diacrid Medical Technology Co., Ltd, priority 2005, dated 2014).

The test has as its system Lewis lung cancer cells. As to the kind of experiment: Tumor growth inhibition assay in vivo of vinorelbine micellar preparation. Details: species or system Balb/c mice. The conditions noted are these: for Volume of tumor (mm^3): 5 mg/kg iv on the 1st, 8th and 15th day. As for the experimental part:
Fresh Lewis lung cancer cells (ATTC, CRL-1642) were inoculated subcutaneously into the axillary region of right forelimb of Balb/c mice (1×10^7/ml, 0.2 ml/mice). The mice (17-19 g, female) bearing tumor were then randomly divided into three groups, i.e. control group, free vinorelbine group (F-VNR) and vinorelbine micelle group (M-VNR), 6 mice each group. Administration was carried out on the next day to the inoculation. The doses of both F-VNR and M-VNR were 5 mg/kg (drug concentration: 0.5 mg/ml), iv volume 0.1 ml/10 g body weight, and the dose of the control group was iv 0.1 ml/10 g body weight of physiological saline. Dosing was performed once a week and continued for three weeks (dosing on the 1st, 8th and 15th day, respectively), wherein the length (a) and width (b) of the tumors were measured with vernier caliper on the 7th, 10th, 14th, 17th, and 21th day, respectively. The volume of the tumor was calculated according the formula V=a×b^2/2. […] The experiment results were shown in FIG. 5 as well as following table.

For `CCC1=C[C@@H]2CN(C1)Cc1c([nH]c3ccccc13)[C@@](C(=O)OC)(c1cc3c(cc1OC)N(C)[C@H]1[C@@](O)(C(=O)OC)[C@H](OC(C)=O)[C@]4(CC)C=CCN5CC[C@]31[C@@H]54)C2` [F-VNR, vinorelbine], where the note is “5 mg/kg iv once a week for three weeks”, the “effect on growth of Lewis lung cancer tumor (in words)” value is “almost ineffective”. Further, the “Volume of tumor (mm^3)” value is reported as 217 ± 94.5 mm^3 (7 days); 810.3 ± 407.6 mm^3 (10 days); 1694.3 ± 789.1 mm^3 (14 days); 2460.1 ± 1367.1 mm^3 (17 days); 5163 ± 2623.8 mm^3 (21 days).
